Assay [1] relates to S. epidermidis ATCC 12228. Briefly: MIC microdilution (Table I-1). The settings on record: Staphylococcus epidermidis, ATCC12228, read after 18 hours, read-out: MIC. The format is cell-based, Staphylococcus epidermidis. As to the method:
(§1) The microdilution method recommended by the Clinical and Laboratory Standard Institute [M07-A8, Vol. 29, N^o 2] was used. The activity of indolic compounds was tested against 29 bacterial strains belonging to 17 different species and 12 different genera (Staphylococcus, Streptococcus, Enterococcus, Listeria, Bacillus, Haemophilus, Escherichia, Klebsiella, Enterobacter, Serratia, Pseudomonas, and Acinetobacter). Bacterial inocula were prepared in Mueller Hinton broth (MH2, bioMerieux, Marcy L'Etoile, France), supplemented with 10% sheep blood for fastidious species (i.e., Streptococcus pneumoniae and Haemophilus influenzae). They were dispensed in 96 well microtiter plates (5×10^5 CFU/ml of final inoculum). Indolic compounds were added to the wells as to obtain two-fold serial concentrations (0.50-128 mg/L of final concentrations). Plates were incubated at 37° C. in ambient air, or at 37° C. in 5% CO2 enriched atmosphere for fastidious species. […] Drug-free cultures served as growth controls. Cultures receiving gentamicin, ciprofloxacin or cefotaxime served as positive controls.
For orientation: In broth dilution the organism is exposed to a series of concentrations in liquid medium.

The subject of assay [2] is S. epidermidis CIP 103627. Briefly: MIC microdilution (Table I-1). The settings on record: Staphylococcus epidermidis, CIP103627, read after 18 hours, read-out: MIC. The format is cell-based, Staphylococcus epidermidis. As to the method: as §1
The test system of a further assay is S. epidermidis CIP 81.55. Put plainly: MIC microdilution (Table I-1). The assay is classed as cell-based, Staphylococcus epidermidis. The settings on record: Staphylococcus epidermidis, CIP81, read after 18 hours, read-out: MIC. As to the method: as §1
Assay [3] has as its system Staphylococcus aureus 1199B (overexpression of the NorA efflux pump). Briefly: Efflux pump inhibition assay with sub-inhibitory ciprofloxacin. The assay is classed as cell-based. As to the method: (§2) The efflux pump inhibition potential of the bis-indolic derivatives was tested using two steps. In a first step, the intrinsic antibacterial activity of the compounds was assayed against the following strains:
(§3) The following experimental protocol was used: indolic derivatives (initially solubilised in DMSO at 10 mg/mL) were dispensed in a 96-wells microplate by two fold serial dilutions in Muller-Hinton medium (MH, Bio Rad) using a Biomek 2000 (Beckman) handling robot. 100 μL of the bacterial inoculum (an overnight culture at 37° C. in 5 mL MH diluted 100-fold) was then added in each well. The total volume was 200 μL in each well and the final bacteria concentration 10^6 CFU/mL (CFU: colony forming unit). The highest final indolic derivative concentration was 128 mg/L. Growth was assayed with a microplate reader by monitoring absorption at 620 nm after 1, 2, 5, 7 and 24 h incubation at 37° C. In addition, the plates were read visually after 24 hours incubation. Cultures containing 5 μL DMSO were used as growth controls. In addition, two controls containing a sub-inhibitory or a inhibitory antibiotic concentration for the tested strain were performed. The antibiotics used were ampicillin (0.5 and 32 μg/mL) for E. coli, kanamycin (0.5 and 16 μg/mL) for S. aureus ATCC 25923, ciprofloxacin (4 and 64 mg/L) for S. aureus 1199B, ciprofloxacin (0.5 and 2 mg/L) for S. aureus K2378. All experiments were performed in duplicate.
(§4) Efflux pump inhibition assays were then performed against resistant Staphylococcus aureus strains SA 1199B and SA K2378 for bis-indolic derivatives. […] The minimal inhibitory concentration (MIC) of the bis-indolic compound allowing a complete inhibition of the bacterial growth in the presence of ciprofloxacin was determined.

Assay [4] relates to Staphylococcus aureus K2378 (overexpresses the efflux pump NorA from a multicopy plasmid). Described as above. The format is cell-based. As to the method:
as §2, §3, §4

For another assay, the system named is S. pneumoniae ATCC 6303. Briefly: MIC microdilution (Table I-1). The settings on record: Streptococcus pneumoniae, ATCC6303, read after 18 hours, read-out: MIC. The format is cell-based, Streptococcus pneumoniae. As to the method:
as §1

For assay [5], the system named is Staphylococcus hominis (CHUG-Shom5). Briefly: MIC, Staphylococcus panel (Table I-2). The settings on record: 18 h, 4% DMSO. The format is cell-based. As to the method: (§5) We used the previously described protocol, with subtle modifications. The microdilution method recommended by the Clinical and Laboratory Standard Institute [M07-A9, Vol. 32, N^o 2] was used. The activity of bis-indolic compounds was tested against 35 bacterial strains belonging to 12 different Staphylococcus species.
(§6) Bacterial inocula were prepared in Mueller Hinton broth (MH2, BioMerieux, Marcy L'Etoile, France). They were dispensed in 96 well microtiter plates (5×10^5 CFU/ml of final inoculum, 192 μL per well). Indolic compounds diluted in pure DMSO (8 μL per well, concentrated 25 times) were added to the wells as to obtain two-fold serial concentrations (0.5-32 mg/L of final concentrations). The final concentration of DMSO was 4% in each well.
(§7) To avoid cross-contaminations in microtiter plates, one row was left blank between each strain tested. Microplates were incubated for 18 h at 37° C. in ambient air or at 37° C. in 5% CO2 enriched atmosphere for fastidious species. Then MICs were read visually and, in case of visual reading difficulties, confirmed using a spectrophotometer at a wavelength of 630 nm (BioTek® EL808 Absorbance Microplate Reader). MICs corresponded to the minimum bis-indolic compound concentration that allowed complete visual growth inhibition of bacteria. Drug-free cultures served as growth controls.
(§8) Coagulase-negative Staphylococcus strains included three reference strains purchased from CRBIP: a methicillin-susceptible S. epidermidis strain (ATCC 12228), a methicillin-resistant S. epidermidis strain (ATCC 49461), and a methicillin-susceptible S. sciuri strain (ATCC 29061). We also used clinical strains belonging to the following coagulase-negative Staphylococcus species: S. auricularis (two strains), S. warneri (five strains), S. capitis (five strains), S. haemolyticus (four strains), S. hominis (seven strains), S. cohnii (two strains), and S. saprophyticus, S. caprae and S. simulans (one strain each). Identification of the clinical strains was obtained using VITEK® 2 System (Biomérieux).

In assay [6] the test system is Staphylococcus cohnii (CHUG-Scoh1) (MRSA). Briefly: MIC, Staphylococcus panel (Table I-2). The format is cell-based. The settings on record: 18 h, 4% DMSO. As to the method:
as §5, §6, §7, §8

Assay [7] deals with Staphylococcus hominis (CHUG-Shom8). Briefly: MIC, Staphylococcus panel (Table I-2). The assay is classed as cell-based. The following applies: 18 h, 4% DMSO. As to the method: as §5, §6, §7, §8
Assay [8] deals with Staphylococcus capitis (CHUG-Scap4). Put plainly: MIC, Staphylococcus panel (Table I-2). The format is cell-based. The settings on record: 18 h, 4% DMSO. As to the method:
as §5, §6, §7, §8

For assay [9], the system named is Staphylococcus hominis (CHUG-Shom6). Briefly: MIC, Staphylococcus panel (Table I-2). The assay is classed as cell-based. The settings on record: 18 h, 4% DMSO. As to the method: as §5, §6, §7, §8
Assay [10] relates to Staphylococcus epidermidis ATCC 49461. Briefly: MIC, Staphylococcus panel (Table I-2). The assay is classed as cell-based. The following applies: ATCC49461, 18 h, 4% DMSO. As to the method:
as §5, §6, §7, §8

For assay [11], the system named is Staphylococcus simulans (CHUG-Ssim1). Briefly: MIC, Staphylococcus panel (Table I-2). The assay is classed as cell-based. The settings on record: 18 h, 4% DMSO. As to the method:
as §5, §6, §7, §8

The test system of assay [12] is Staphylococcus haemolyticus (CHUG-Scap4). Put plainly: MIC, Staphylococcus panel (Table I-2). The assay is classed as cell-based. The following applies: 18 h, 4% DMSO. As to the method: as §5, §6, §7, §8
[13] abbreviates: in the presence of ciprofloxacin 4 mg/L (MIC/4).
Where [14] appears, read: in the presence of ciprofloxacin 0.25 mg/L (MIC/8).

Values after ≈ are worked out from the molar mass of the structure shown.

By MIC is commonly meant the lowest concentration found to suppress growth. On to `O=C(C(=O)N1CCOCC1c1c[nH]c2ccccc12)c1c[nH]c2ccccc12` (stereo not drawn) [Compound 6b, 1-(3-(1H-Indol-3-yl)morpholino)-2-(1H-indol-3-yl)ethane-1,2-dione], for which the MIC (in assay [1]; in [2]; with S. epidermidis CIP 81.55; in the assay with S. pneumoniae ATCC 6303) was > 128 µg/mL each time. For the same compound, the “CMI, mg/L (Ciprofloxacin concentration, mg/L)” value (“CMI, mg/L” below) in assay [3] (setting [13]) was 0.5 (4) mg/L; in [4] (setting [14]) it was 16 (0.25) mg/L.
Regarding `O=C(C(=O)N1CCCCC1c1c[nH]c2ccc(Br)cc12)c1c[nH]c2ccc(Br)cc12` (stereo not drawn) [Compound 6d, 1-(5-Bromo-1H-indol-3-yl)-2-(2-(5-bromo-1H-indol-3-yl)piperidin-1-yl)ethane-1,2-dione], the MIC (in [1]; in assay [2]; in the assay with S. epidermidis CIP 81.55; in the assay with S. pneumoniae ATCC 6303) was > 128 µg/mL each time. Moreover, the results for the “CMI, mg/L” value in assay [3] (setting [13]) and in assay [4] (setting [14]) were <0.125 (4) mg/L and 8 (0.25) mg/L, respectively.
Take `CC(C)(C)OC(=O)NCC(NC(=O)C(=O)c1c[nH]c2ccc(Br)cc12)c1c[nH]c2ccc(Br)cc12` (stereo not drawn) [Compound 4, tert-Butyl(2-(5-bromo-1H-indol-3-yl)-2-(2-(5-bromo-1H-indol-3-yl)-2-oxoacetamido)ethyl) carbamate]: the MIC in [5], in assay [6], in [7], in assay [8], in assay [9] and in assay [10] was 1 µg/mL (≈ 1.65 µM) in each case. In addition, the MIC in assay [11] amounted to 1 µg/mL (≈ 1.65 µM); in assay [12], 2 µg/mL (≈ 3.31 µM); in [1], 0.8 µg/mL (≈ 1.32 µM); in assay [2] it was 1.6 µg/mL (≈ 2.65 µM); in the assay on S. epidermidis CIP 81.55, 1.6 µg/mL (≈ 2.65 µM).
As for `O=C(C(=O)N1CCCCC1c1c[nH]c2ccccc12)c1c[nH]c2ccccc12` (stereo not drawn) [Compound 6a, 1-(2-(1H-Indol-3-yl)piperidin-1-yl)-2-(1H-indol-3-yl)ethane-1,2-dione], the MIC (in [1]; in assay [2]; with S. epidermidis CIP 81.55; in the assay on S. pneumoniae ATCC 6303) was > 128 µg/mL each time. The “CMI, mg/L” value in assay [3] (setting [13]) is <0.125 (4) mg/L; in assay [4] (setting [14]) it was 8 (0.25) mg/L.
Turning to `CC(C)(C)OC(=O)N1CCN(C(=O)C(=O)c2c[nH]c3ccc(Br)cc23)C(c2c[nH]c3ccc(Br)cc23)C1` (stereo not drawn) [Compound 6f, tert-Butyl 3-(5-bromo-1H-indol-3-yl)-4-(2-(5-bromo-1H-indol-3-yl)-2-oxoacetyl) piperazine-1-carboxylate], the MIC (in [1]; in assay [2]; with S. epidermidis CIP 81.55; in the assay on S. pneumoniae ATCC 6303) was > 128 µg/mL each time. The “CMI, mg/L” value is reported as <0.25 (4) mg/L in [3] (setting [13]), 1 (0.25) mg/L in assay [4] (setting [14]) and 1 (0.5) mg/L in assay [4] (in the presence of ciprofloxacin 0.5 mg/L (MIC/4)).
With `CC(NC(=O)C(=O)c1c[nH]c2ccc(Br)cc12)c1c[nH]c2ccc(Br)cc12` (stereo not drawn) [Compound 5, 2-(5-Bromo-1H-indol-3-yl)-N-(1-(5-bromo-1H-indol-3-yl)ethyl)-2-oxoacetamide], the MIC in assay [5] stood at 1 µg/mL (≈ 2.04 µM); in assay [6], 2 µg/mL (≈ 4.09 µM); in assay [7], 2 µg/mL (≈ 4.09 µM); in [8], 1 µg/mL (≈ 2.04 µM); in [9], 2 µg/mL (≈ 4.09 µM); in [10], 2 µg/mL (≈ 4.09 µM). In addition, the MIC in assay [11] amounted to 2 µg/mL (≈ 4.09 µM); in assay [12], 4 µg/mL (≈ 8.18 µM); in assay [1], 2 µg/mL (≈ 4.09 µM); in assay [2], 2 µg/mL (≈ 4.09 µM); with S. epidermidis CIP 81.55, 2 µg/mL (≈ 4.09 µM); with S. pneumoniae ATCC 6303, 32 µg/mL (≈ 65.4 µM).
`CC(C)(C)OC(=O)N1CCN(C(=O)C(=O)c2c[nH]c3ccccc23)C(c2c[nH]c3ccccc23)C1` (stereo not drawn) [Compound 6c, tert-Butyl 4-(2-(1H-indol-3-yl)-2-oxoacetyl)-3-(1H-indol-3-yl)piperazine-1-carboxylate]: the MIC (in assay [1]; in assay [2]; with S. epidermidis CIP 81.55; with S. pneumoniae ATCC 6303) was > 128 µg/mL in each case. Also, the figures for the “CMI, mg/L” value in [3] (setting [13]) and in assay [4] (setting [14]) were 0.25 (4) mg/L and 16 (0.25) mg/L, respectively.
`CC(C)(C)OC(=O)NCC(NC(=O)C(=O)c1c[nH]c2ccccc12)c1c[nH]c2ccccc12` (stereo not drawn) [Compound 2, tert-Butyl(2-(2-(1H-indol-3-yl)-2-oxoacetamido)-2-(1H-indol-3-yl)ethyl)carbamate]: the MIC (in assay [1]; in [2]; with S. epidermidis CIP 81.55; in the assay with S. pneumoniae ATCC 6303) was > 128 µg/mL in each case. Moreover, the “CMI, mg/L” value is 2 (2) mg/L in [3] (in the presence of ciprofloxacin 2 mg/L (MIC/8)) and 0.5 (4) mg/L in assay [3] (setting [13]).

(Values after US9321722B2, “Bis-indolic derivatives, their uses in particular as antibacterials” (UNIVERSITE JOSEPH FOURIER, priority 2011, dated 2016).)
